# According to patent publication US12625139B2, “Methods for modulation of acetyltransferase activity and applications thereof including treatments” (The Board of Trustees of the Leland Stanford Junior …, priority 2019, dated 2026):
# Structures can show the parent of a compound that is named as a salt.
# Biological target: T1, recombinant HAT1 (Homo sapiens, UniProt O14929)
# T1 construct: FLAG (DYKDDDDK); made in house; host or cells: HEK-293f freestyle cells (human), forskolin-treated; purified by FLAG immunoprecipitation
# T1 sequence (O14929 1-419): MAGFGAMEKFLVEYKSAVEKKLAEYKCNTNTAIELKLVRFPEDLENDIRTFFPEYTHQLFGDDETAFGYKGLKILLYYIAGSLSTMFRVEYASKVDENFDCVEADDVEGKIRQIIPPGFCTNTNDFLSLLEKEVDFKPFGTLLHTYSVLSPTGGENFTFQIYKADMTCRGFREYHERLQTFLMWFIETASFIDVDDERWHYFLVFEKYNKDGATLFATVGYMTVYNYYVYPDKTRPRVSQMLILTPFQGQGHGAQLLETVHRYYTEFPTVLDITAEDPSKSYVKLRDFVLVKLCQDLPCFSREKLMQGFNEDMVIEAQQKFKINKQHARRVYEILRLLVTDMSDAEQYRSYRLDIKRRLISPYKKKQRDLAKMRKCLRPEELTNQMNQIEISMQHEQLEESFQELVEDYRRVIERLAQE
# Assay: HAT1 modulator assay (4-pentynoyl CoA, click chemistry, streptavidin-HRP fluorescence)
# Type: biochemical
# Settings: HAT1 assay; FIGS. 7B and 9
# From the text: Provided in FIG. 4 is an exemplary embodiment of an experimental assay to identify modulators of HAT1. To begin the assay, a putative modulator is mixed with the substrate histone H4 N-terminal peptide, the acetyl-like donor 4-pentynonyl CoA, and recombinant HAT1. The H4 N-terminal peptide is the first 23 amino acids of H4 (SEQ. ID No. 1) with a biotin conjugated at the C-terminus of the peptide. Importantly, K5 and K12 of the H4 N-terminal peptide are available for di-acetylation. The 4-pentynoyl CoA is an acetyl CoA derivative having an […] extending from the acetyl group. The recombinant HAT1 is produced in human cells with a peptide tag […] (FLAG®), which is purified via immunoprecipitation.
# Each reaction is carried out within a well of a 96-well plate for one hour at 37° C., resulting in pentynoylation of K5 and K12 of the substrate peptide. The reactions are transferred to a neutravidin-coated 96-well plate to capture the biotinylated peptide via a neutravidin-biotin interaction performed for one hour at room temperature. After washing the wells 3X with PBS-tween, the substrate peptides are exposed to biotinylated azide, which reacts with the pentynoyl groups in a copper (I) click chemistry reaction to further functionalize these appendages with biotin, which is performed at 37° C. for 1 hour. Substrates that were acetylated by HAT1 now have an available biotin extending from K5 and K12. After washing the wells 3X with PBS-tween, streptavidin-HRP is added to the well to bind to every available biotin for one hour at 37° C. After washing the wells 3X with PBS-tween, 10-Acetyl-3,7-dihydroxyphenoxazine (Amplex® Red ThermoFisher® Scientific, Waltham, MA) is added as a substrate of HRP and incubated for 30 minutes to produce a detectable fluorescence (570 nm excitation and 585 nm emission), which is measurable utilizing a plate reader.
# The HAT1 enzymatic reaction conditions was also optimized, utilizing 0.1M EDTA, 0.1M DTT or both. As portrayed in the right panel of FIG. 5, 0.1M DTT provided the best activity and was utilized in the assay reaction.
# FIG. 6 provides HAT1 enzyme kinetics (left panel) and Michaelis-Menten analysis (right panel). To perform the enzyme kinetics, various amounts of input enzyme were tested in 20 uL reaction with the amount of activity measured over time. […] Assay reactions were run with 15 μM of substrate peptide.
row,Compound,inhibition of HAT1 activity
1,"CC[C@@]1(O)C[C@H](O[C@H]2C[C@H](N(C)C)[C@H](O[C@H]3C[C@H](O)[C@H](O[C@H]4CCC(=O)[C@H](C)O4)[C@H](C)O3)[C@H](C)O2)c2c(cc3c(c2O)C(=O)c2c(O)cccc2C3=O)[C@H]1C(=O)OC [NSC 208734, aclacinomycin A1]",various ability to inhibit HAT1
2,"CC[C@@]1(O)C[C@H](O[C@H]2C[C@H](N(C)C)[C@H](O)[C@H](C)O2)c2c(cc3c(c2O)C(=O)c2c(O)ccc(O)c2C3=O)[C@H]1C(=O)OC [NSC 267229, pyrromycin]",various ability to inhibit HAT1
3,"COc1cccc2c1C(=O)c1c(O)c3c(c(O)c1C2=O)CC(O)(/C(C)=N/O)CC3OC1CC(N)C(O)C(C)O1 (stereo not drawn) [NSC 143491, daunomycin 3-oxime hydrochloride]",various ability to inhibit HAT1
4,"CC[C@@]1(O)C[C@H](OC2CC(N(C)C)C(OC3CC(O)C(OC4CC(O)C(O)C(C)O4)C(C)O3)C(C)O2)c2c(cc3c(c2O)C(=O)c2c(O)ccc(O)c2C3=O)[C@H]1C(=O)OC (stereo partly drawn) [NSC 265211, Methyl (1R,2R,4S)-4-[5-[5-(4,5-dihydroxy-6-methyloxan-2-yl)oxy-4-hydroxy-6-methyloxan-2-yl]oxy-4-(dimethylamino)-6-methyloxan-2-yl]oxy-2-ethyl-2,5,7,10-tetrahydroxy-6,11-dioxo-3,4-dihydro-1H-tetracene-1-carboxylate]",various ability to inhibit HAT1
5,"CC[C@@]1(O)C[C@H](O[C@H]2C[C@H](N(C)C)[C@H](O)[C@H](C)O2)c2c(O)c3c(c(O)c2[C@H]1O[C@H]1C[C@H](N(C)C)[C@H](O)[C@H](C)O1)C(=O)c1cccc(O)c1C3=O [NSC 136044, rhodomycin A]",various ability to inhibit HAT1
6,"CC[C@@]1(O)C[C@H](O[C@H]2C[C@H](N(C)C)[C@H](O[C@H]3C[C@@H]4O[C@H]5CC(=O)[C@H](C)O[C@H]5O[C@@H]4[C@H](C)O3)[C@H](C)O2)c2c(cc3c(c2O)C(=O)c2c(O)ccc(O)c2C3=O)[C@H]1C(=O)OC [NSC 243023, cinerubin B]",various ability to inhibit HAT1
7,"COC1C(C)OC(OC2CC(C)(O)Cc3cc4c(c(O)c32)C(=O)c2c(O)cc3c(c2C4=O)OC2OC3(C)C(O)C(N(C)C)C2O)C(OC)C1(C)OC (stereo not drawn) [NSC 265450, nagalomycin C]",various ability to inhibit HAT1
8,"CC(C)(COP(=O)(O)OP(=O)(O)OC[C@H]1O[C@@H](n2cnc3c(N)ncnc32)[C@H](O)[C@@H]1OP(=O)(O)O)[C@@H](O)C(=O)NCCC(=O)NCCSC(=O)[C@@H](N)CCCCN [lysyl CoA, reference compound]",did not inhibit HAT1 activity
9,"COc1cccc2c1C(=O)c1c(O)c3c(c(O)c1C2=O)C[C@@](O)(C(C)=O)C[C@@H]3OC1CC(N(Cc2ccccc2)Cc2ccccc2)C(O)C(C)O1.Cl (stereo partly drawn) [NSC 268242, N,N-Dibenzyldaunorubicin]",various ability to inhibit HAT1

# Same assay, conditions: Michaelis-Menten analysis, H4 peptide substrate varied; FIG. 6
row,Compound,Km
1,H4 peptide substrate: first 23 amino acids of H4 (SEQ. ID No. 1) with a biotin conjugated at the C-terminus [reference compound],13 µM

# Same assay, conditions: screen of fifty compounds; FIG. 8
row,Compound,modulation of HAT1 activity (agonist or antagonist)
1,"O=C(O)C(O)C(O)C(=O)O.OCC(O)C(O)C(O)C(O)C(O)c1nc2ccccc2[nH]1 (stereo not drawn) [NSC 56094, 1-(1H-Benzimidazol-2-yl)hexane-1,2,3,4,5,6-hexol; 2,3-dihydroxybutanedioic acid]",agonists
2,"OCC(O)C(OC1OC(CO)C(O)C(O)C1O)C(O)c1cnn(-c2ccccc2)n1 (stereo not drawn) [NSC 405936, 2-(Hydroxymethyl)-6-[1,3,4-trihydroxy-1-(2-phenyltriazol-4-yl)butan-2-yl]oxyoxane-3,4,5-triol]",agonists
3,"CC1(O)Nc2nc3c(ncn3C3OC(CO)C(O)C3O)c(=O)n2C1O (stereo not drawn) [NSC 309109, 3-[3,4-Dihydroxy-5-(hydroxymethyl)oxolan-2-yl]-6,7-dihydroxy-6-methyl-5,7-dihydroimidazo[1,2-a]purin-9-one]",antagonists
4,nogalarol [NSC 86005],antagonists

# Test system: CBP/p300 acetyltransferase
# Assay: not given
# Settings: stated as known; cited from earlier work
row,Compound,inhibition of CBP/p300 acetyltransferase
1,"CC(C)(COP(=O)(O)OP(=O)(O)OC[C@H]1O[C@@H](n2cnc3c(N)ncnc32)[C@H](O)[C@@H]1OP(=O)(O)O)[C@@H](O)C(=O)NCCC(=O)NCCSC(=O)[C@@H](N)CCCCN [lysyl CoA, reference compound]",known inhibitor of CBP/p300 acetyltransferase
